According to patent US20050209157A1, “Short bioactive peptides and methods for their use” (priority 2001, published 2005):
Like-named read-outs stand apart in the source and are kept apart here. No end group written: not given here.

Tests used:
[1] = system: Pseudomonas aeruginosa ATCC 9027; experiment: Antimicrobial assay I, MIC by OD measurement; format: cell-based; conditions: 37° C. for 24 hours, absorbance 620 nm
[2] = system: Staphylococcus aureus ATCC 6538; experiment: Antimicrobial assay I, MIC by OD measurement; format: cell-based; conditions: 37° C. for 24 hours, absorbance 620 nm
[3] = system: yeast (Saccharomyces cerevisiae); experiment: Antimicrobial assay I, yeast assay in RPMI 1640; format: cell-based; conditions: RPMI 1640 media
S. aureus (MRSA) = format: cell-based, Staphylococcus aureus; conditions: mean of three; 16 to 20 hours at 35° C.
S. epidermidis C621 = format: cell-based, Staphylococcus epidermidis; conditions: mean of three; 16 to 20 hours at 35° C.
S. pyogenes M76 = experiment: Antimicrobial assays II, NCCLS broth microdilution MIC; format: cell-based, Streptococcus pyogenes; conditions: mean of three; 16 to 20 hours at 35° C.
S. pyogenes ATCC19615 = experiment: as above; format: cell-based, Streptococcus pyogenes; conditions: mean of three, in µg/mL
S. pneumoniae C718 = experiment: as above; format: cell-based, Streptococcus pneumoniae; conditions: mean of three
S. pneumoniae C719 = experiment: as above; format: cell-based, Streptococcus pneumoniae; conditions: mean of three, in µg/mL
BMKC = experiment: Anti-cancer assay, MTT, LD50; format: cell-based; conditions: BMKC cloned melanoma line, 24 hours with peptide
Description: (§1) Numbers are LD50 values (μg/mL).

HeLaS3 = experiment: Anti-cancer assay, MTT, LD50; format: cell-based; conditions: 24 hours with peptide, cervical carcinoma
Description: as §1

MCF7 = experiment: Anti-cancer assay, MTT, LD50; format: cell-based; conditions: MCF7 breast adenocarcinoma line, MTT, 24 hours with peptide
Description: as §1

in vitro [4] = format: cell-based, human; conditions: human, human red blood cells, pH 7, hemolytic assay, concentration at 50% hemolysis, 1 hour at 37° C.; read-out: LD50
collagen = experiment: Collagen stimulation, ELISA on fibroblast cell lines; format: cell-based
Method: (§2) Fibroblast cell lines were cultured under standard conditions and assayed for collagen and laminin using an ELISA system manufactured by Panvera (Madison, Wis.). Antibodies for collagen and laminin manufactured by Takara Shuzo Co., Ltd Japan. […] The other three peptides tested neither stimulated nor inhibited production (i.e. no effect was observed).

laminin = experiment: Laminin stimulation, ELISA on fibroblast cell lines; format: cell-based
Method: as §2

WI38 = conditions: MTT, 24 hours with peptide; normal fibroblast line
in vitro [5] = conditions: human, WI38 normal lung fibroblast cells, LD50 WI38, WI38 normal lung fibroblast line, MTT, 24 hours with peptide
P. aeruginosa 27853 = experiment: Synergy between doxacycline and peptides, MBC; format: cell-based, Pseudomonas aeruginosa; conditions: for MBC, With doxacycline: doxacycline held at 10 ppm; for MBC, Without doxacycline: peptide alone
Description: Synergy between doxacycline and various peptides was investigated against P. aeruginosa 27853. The following table illustrates the beneficial effects of combining doxacycline and the peptides, where the numbers are the minimum bactericidal concentration (MBC; μg/mL). When combined with the peptides, the doxacycline was held at 10 ppm concentration.

H1299 = experiment: Anti-cancer assay, MTT, LD50; format: cell-based; conditions: 24 hours with peptide, lung large cell carcinoma
Description: as §1

PC3 = experiment: Anti-cancer assay, MTT, LD50; format: cell-based; conditions: 24 hours with peptide, prostate adenocarcinoma
Description: as §1

SW480 = experiment: Anti-cancer assay, MTT, LD50; format: cell-based; conditions: SW480 colon adenocarcinoma line, 24 hours with peptide
Description: as §1

[6] = system: human red blood cells (RBC); experiment: in vitro; format: cell-based; conditions: hemolytic assay, concentration at 50% hemolysis, 1 hour at 37° C.
[7] = system: clinical tobramycin resistant strain 960890198-3c; experiment: Activity against drug resistant strains; format: cell-based; conditions: for activity against tr Pseudomonas 960890198-3c: clinical tobramycin resistant strain, Table 47; for activity against clinical tobramycin resistant strain: strain 960890198-3c
Method: (§3) Peptides were assayed for their activity against tobramycin sensitive and resistant strains.

[8] = system: tobramycin resistant (tr) Pseudomonas ATCC 13096; experiment: Activity against drug resistant strains; format: cell-based; conditions: for activity against tobramycin resistant versus tobramycin sensitive Pseudomonas: ATCC 13096 (tr) compared with ATCC 27853 (ts); for activity against tr Pseudomonas 13096: tobramycin resistant strain, Table 46
Method: as §3

[9] = system: tobramycin sensitive (ts) Pseudomonas ATCC 27853; experiment: Activity against drug resistant strains; format: cell-based; conditions: tobramycin sensitive strain
Method: as §3

P. aeruginosa H374 = format: cell-based, Pseudomonas aeruginosa; conditions: for FIC Index: 0.5 or less = synergy
Summary of the method: (§4)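 Synergy against efflux-mutant strains: two-fold dilutions of nalidixic acid or chloramphenicol tested with peptide held at ¼ of its MIC.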

P. aeruginosa H774 = format: cell-based, Pseudomonas aeruginosa; conditions: P. aeruginosa H744; nalidixic acid + peptide at ¼ MIC; 0.5 or less = synergy
Summary of the method: as §4

P. aeruginosa = format: cell-based, Pseudomonas aeruginosa; conditions: P. aeruginosa H744; MIC of nalidixic acid with peptide at ¼ MIC
Summary of the method: as §4

Escherichia coli 25922 = experiment: microbe, parasite or virus in culture
Description: Synergy between peptide Shiva-10 (SEQ ID NO:4) and various antimicrobial agents was investigated against Escherichia coli 25922.
Synergy between tetracycline and various peptides was investigated against Escherichia coli 25922 MBC. […] When combined with the peptides, the concentration of tetracycline was held at 1.5 ppm.

Compound | paerug9027 (MIC) [1] | staph6538 (MIC) [2] | yeast (MIC or MFC) [3] | LD50 BMKC (BMKC) | HeLaS3 LD50 (HeLaS3) | LD50 MCF7 (MCF7) | HC50 at 1 h (in vitro [4]) | Collagen stimulation (collagen) | WI38 LD50 (WI38) | CC50 at 24 h (in vitro [5]) | H1299 LD50 (H1299) | PC3 LD50 (PC3) | LD50 SW480 (SW480) | also measured
FAKLLALALKLKL-NH2 [P94] | > (> indicates greater than 200 μg/mL) | 10 µg/mL | > (> indicates greater than 200 μg/mL) | 11 µg/mL | > (> indicates greater than 1000) | 65 µg/mL | 350 µg/mL | 0% | 6 µg/mL | 6 µg/mL |  |  |  | S. aureus (MRSA) MIC (S. aureus (MRSA)): 16 µg/mL; S. epidermidis C621 MIC (S. epidermidis C621): 8 µg/mL; S. pyogenes M76 MIC (S. pyogenes M76): 8 µg/mL; S. pyogenes MIC (S. pyogenes ATCC19615): 8; S. pneumoniae MIC (S. pneumoniae C718): 64 µg/mL; S. pneumoniae MIC (S. pneumoniae C719): 128; Laminin stimulation (laminin): 0%
MPKWKVFKKIEKVGRNIRNGIVKAGPAIAVLGEAKALG-OH [SB-37 (P5; SEQ ID NO: 3)] |  |  |  |  |  |  |  |  |  |  |  |  |  | MBC, With doxacycline (P. aeruginosa 27853): 30 µg/mL; MBC, Without doxacycline (P. aeruginosa 27853): 200 µg/mL
TGFβ |  |  |  |  |  |  |  | 60% |  |  |  |  |  | 
FAKKLAKKLAKAL-NH2 [P74, FAKKLAKKLAKAL-NH2] | 5 µg/mL | 15 µg/mL | 100 µg/mL | 460 µg/mL | 260 µg/mL | 465 µg/mL |  |  | 335 µg/mL | 335 µg/mL | 670 µg/mL | 660 µg/mL | 340 µg/mL | LD50 [6]: > (> indicates greater than 1000); activity against tr Pseudomonas 960890198-3c [7]: 25; activity against clinical tobramycin resistant strain [7]: greater activity against clinical tobramycin resistant strain 960890198-3c; activity against tobramycin resistant versus tobramycin sensitive Pseudomonas [8]: greater activity against tobramycin resistant (tr) Pseudomonas ATCC 13096 than against tobramycin sensitive (ts) Pseudomonas ATCC 27853; activity against tr Pseudomonas 13096 [8]: 16; activity against ts Pseudomonas 27853 ([9]; Table 46): 125; activity against ts Pseudomonas 27853 ([9]; Table 47): 125
FAKLLKLAAKKLL-NH2 [P56] | 5 µg/mL | 200 µg/mL | 50 µg/mL | 205 µg/mL | 300 µg/mL | 500 µg/mL | 600 µg/mL |  | 250 µg/mL | 250 µg/mL | 370 µg/mL | 435 µg/mL | 215 µg/mL | MIC Cm-comb. (P. aeruginosa H374; MIC of chloramphenicol with peptide at ¼ MIC): 16 µg/mL; MIC Nal-comb. (P. aeruginosa H374; MIC of nalidixic acid with peptide at ¼ MIC): 2500 µg/mL; FIC Index (P. aeruginosa H374; chloramphenicol + peptide at ¼ MIC): 1.25; FIC Index (P. aeruginosa H374; nalidixic acid + peptide at ¼ MIC, FIC=0.25+MIC comb/MIC alone): 0.75; FIC Index (P. aeruginosa H774): 1.25; MIC Nal-comb. (P. aeruginosa): 624 µg/mL; activity against tr Pseudomonas 960890198-3c [7]: >50; activity against clinical tobramycin resistant strain [7]: greater activity against clinical tobramycin resistant strain 960890198-3c; activity against tobramycin resistant versus tobramycin sensitive Pseudomonas [8]: greater activity against tobramycin resistant (tr) Pseudomonas ATCC 13096 than against tobramycin sensitive (ts) Pseudomonas ATCC 27853; activity against tr Pseudomonas 13096 [8]: 16; activity against ts Pseudomonas 27853 ([9]; Table 46): 125; activity against ts Pseudomonas 27853 ([9]; Table 47): 125
FALALKALKKL-NH2 [P165] | 25 µg/mL | 10 µg/mL | 25 µg/mL | 240 µg/mL | 400 µg/mL | 360 µg/mL | 350 µg/mL | 0% | 470 µg/mL | 470 µg/mL | 56 µg/mL | 340 µg/mL | 240 µg/mL | Laminin stimulation (laminin): 0%
C[C@H]1c2cccc(O)c2C(O)=C2C(=O)[C@]3(O)C(O)=C(C(N)=O)C(=O)[C@@H](N(C)C)[C@@H]3[C@@H](O)[C@@H]21 [Doxacycline] |  |  |  |  |  |  |  |  |  |  |  |  |  | MBC of doxacycline (P. aeruginosa 27853; doxacycline itself, printed in column With doxacycline): 100 µg/mL
CC(C)C[C@H](NC(=O)[C@H](C)NC(=O)[C@H](CC(C)C)NC(=O)[C@H](CCCCN)NC(=O)[C@H](C)NC(=O)[C@H](CC(C)C)NC(=O)[C@H](CCCCN)NC(=O)[C@H](CCCCN)NC(=O)[C@H](C)NC(=O)[C@H](CC(C)C)NC(=O)[C@H](CCCCN)NC(=O)[C@H](C)NC(=O)[C@H](CC(C)C)NC(=O)[C@H](CCCCN)NC(=O)[C@H](CCCCN)NC(=O)[C@H](C)NC(=O)[C@@H](N)Cc1ccccc1)C(N)=O [FLAK 26AM (P35; SEQ ID NO: 17)] |  |  |  |  |  |  |  |  |  |  |  |  |  | MBC, Without tetracycline (Escherichia coli 25922; peptide alone): 50 µg/mL; MBC, With tetracycline (Escherichia coli 25922; tetracycline held at […]): 20 µg/mL; MBC, With doxacycline (P. aeruginosa 27853): 32 µg/mL; MBC, Without doxacycline (P. aeruginosa 27853): 50 µg/mL
